Assay results from US20090124631A1, “Combination Therapy” (priority 2007, published 2009).
“Also recorded” adds a separate entry of the source.

Experiments:
[1] = tested on: human AZ521 gastric tumor xenograft; assay: AZ521 gastric tumor xenograft, combination with taxol; format: in vivo, mouse; conditions: AZ521, Compound D 40 mg/kg oral daily 14 days with taxol 20 mg/kg i.v.
Method: Antitumor studies were done using human AZ521 gastric tumor xenograft model in male BALBc/A nude mice (from Japan Crea Inc., Japan). Male nude mice were used at age 8-10 weeks. Human carcinoma cells were injected subcutaneously in the animal flank and allowed to form solid tumors. Tumor fragments (about 2 mm^2 fragments) were then removed and implanted subcutaneously to the right flank of other animals. When the tumor sizes reached about 100 to 200 mm^3, recipient animals were treated Compound D (40 mg/kg, suspended with 0.5% HPMC) by oral administration alone, or taxol by i.v. injection (20 mg/kg), or combination of taxol with oral administration of Compound D. Typically, taxol was administered once per week by iv injection on the first day as a single administration, while Compound D was administered once daily for 14 days. Tumor volumes and gross body weight of animals were monitored twice weekly for up to 2 weeks. Each experimental group contained 6 animals.

H460 (NSCLC) xenografts = assay: H460 (NSCLC) xenograft, oral HDAC inhibitor with taxol; format: in vivo, mouse
Method: Antitumor studies were done using human H460 non-small cell lung tumor, Du145 prostate tumor, TSU-Pr1 prostate tumor, and AZ521 gastric tumor xenograft model in male BALBc/A nude mice (from Japan Crea Inc., Japan). Male nude mice were used at age 8-10 weeks. Human carcinoma cells were injected subcutaneously in the animal flank and allowed to form solid tumors. Tumor fragments (about 2 mm^3 fragments) were then removed and implanted subcutaneously through a small surgical incision to the right flank of other animals. […] Tumor volumes and gross body weight of animals were monitored twice weekly for up to 2 weeks for AZ-521 and TSU-Pr1, or 4 weeks for H460 and Du145 xenografts. Each experimental group contained 6 animals.

[2] = tested on: MT3 transcription in implanted H460 tumors; assay: MT3 transcription in implanted H460 tumors in vivo; parameters: species or system mouse; conditions: H460 tumors in mice, single dose 100 mg/kg po
Method: 6 hours or 24 hours post drug administration, mice were sacrificed and tumor excised and put in RNAlater (Ambion, Austin, Tex.) and stored at −70 C until RNAs were extracted using QiaShredder and RNeasy mini kit (Qiagen). For real time RT-PCR to determine MT3 transcription level, 1 μg RNA was converted into cDNA using Expand RT enzyme (Roche) and Oligo(dT) primers (Invitrogen) in a 20 μl reaction volume. For quantitative real-time PCR, the primers used for MT3 were 5′CCCTGCGGAGTGTGAGAAGT 3′ and 5′TGCTTCTGCCTCAGCTGCCT 3′ and those for β-actin were 5′CTCTTCCAGCCTTCCTTCCT 3′ and 5′AGCACTGTGTTGGCGTACAG 3′. Reactions with either pair of primers included an annealing temperature of 63.4° C. All real-time PCR reactions were performed on the MasterCycler ep Realplex (Eppendorf) using FastStart SYBRGreen Master (Roche).

[3] = tested on: anti-angiogenesis genes in colon adenocarcinoma HCT15 cells; assay: Microarray analysis of anti-angiogenesis genes in HCT15 cells; format: cell-based, human; conditions: 1 μM, 24 h
Method: RNA labeling, microarray hybridization, scanning and analysis were performed by Genotypics (India). RNAs were labeled with either Cy3 or Cy5 using Agilent's optimized labeling kits and hybridized to Human whole genome 44K Oligo Microarray. Array chips were ordered from Agilent (Palo Alto, Calif.). Slides were scanned using a DNA microarry scanner from Agilent and the raw data was extracted using Agilent's image analysis tool (feature extraction software). Normalization and Statistical analysis were performed using GeneSpring software. Biological analysis was performed using Biointerpreter software.
FIG. 4a indicates a list of selected genes with anti-angiogenesis function. The numbers indicate the fold induction in treated samples compared to non-treated samples (average of three biological replicates ±standard deviation).

[4] = tested on: bFGF expression in A549 (NSCLC) xenografts; assay: bFGF expression in A549 xenografts; format: in vivo; conditions: 150 mg/kg, p.o., qdx3
[5] = tested on: TSP-1 expression in cancer cells (Du145, H460, A549); assay: TSP-1 transcription in cancer cells in vitro; format: cell-based, human; conditions: over time, 3 microM, 24 hours
Method: Cells were exposed by Cpd A or SAHA (3 microM) for 24 hours. Total RNA was collected by Isogen (Nippongene, Tokyo, Japan) and reverse-transcribed to cDNA by ExScript® RT reagent Kit (TAKARA, Kyoto, Japan). The expression level of TSP-1 mRNA was detected by ABI7700 analyzer using a probe/primer pre-mixture reagent (ABI, Cat#, CA, USA) and TaqMan® Universal PCR Master Mix (ABI, Cat# 430-4437) as described in the ABI's protocol.

[6] = tested on: MT3 transcription in human myeloma RPMI-8226 cells; assay: MT3 transcription in RPMI-8226 cells, real time RT-PCR; format: cell-based; conditions: 24 hours
Method: (§1) Total RNAs were extracted from cell pellets or from tumors using QiaShredder and RNeasy mini kit (Qiagen). 1 μg RNA was converted into cDNA using Expand RT enzyme (Roche) and Oligo(dT) primers (Invitrogen) in a 20 μl reaction volume. For quantitative real-time PCR, the primers used for MT3 were [NT] and [NT] and those for β-actin were [NT] and [NT]. Reactions with either pair of primers included an annealing temperature of 63.4° C. All real-time PCR reactions were performed on the MasterCycler ep Realplex (Eppendorf) using FastStart SYBRGreen Master (Roche).

[7] = tested on: VEGF expression in A549 (NSCLC) xenografts; assay: VEGF expression in A549 xenografts; format: in vivo; conditions: 150 mg/kg, p.o., qdx3
[8] = tested on: MT3 transcription in human T-cell leukemia Jurkat-T cells; assay: MT3 transcription in Jurkat-T cells, real time RT-PCR; format: cell-based; conditions: 24 hours
Method: as §1

## Nc1ccc(-c2ccccc2)cc1NC(=O)c1ccc(N2CC[C@H](N)C2)cc1 [Compound D]
[1]
  antitumor activity of taxol: Potentiation

## Nc1ccccc1NC(=O)c1ccc(CNc2nccc(-c3cccnc3)n2)cc1 [Compound A]
H460 (NSCLC) xenografts; Compound A 100 mg/kg or SAHA 120 mg/kg with taxol 60 mg/kg
  tumor response to combination therapy with taxol: tumor regression
H460 (NSCLC) xenografts; Compound A 100 mg/kg p.o. 3 times per week with taxol 60 mg/kg i.v. day 1
  anti-tumor effect of taxane (tumor volume): potentiation
[2]
  MT3 transcription in tumors: induction
[3]
  transcription of anti-angiogenesis genes: affects several genes of the angiogenesis pathway; also recorded: induction
[4]
  bFGF expression: suppression
[5]
  TSP-1 expression: induction
[6]
  MT3 transcription: dose-dependent induction
[7]
  VEGF expression: suppression
[8]
  MT3 transcription: dose-dependent induction
